Measurements from PMC11729428, “New Potent Inhibitor of Transforming Growth Factor-Beta (TGFβ) Signaling that is Efficacious against Microsatellite Stable Colorectal Cancer Metastasis in Combination with Immune Checkpoint Therapy in Mice” (ACS Pharmacology & Translational Science, 2024).
In brackets after ≈: the same amount, converted by molar mass. Read-outs that look alike come from different tables or passages of the source.

How the values were obtained:
[1] = Exploratory toxicology study in Balb/C mice; assay type: in vivo
Description: In comparison to that in rats, toxicity of TGFβ receptor-1 inhibitors in mice was less severe (Figure 4). […] Histopathology examination in bones found relatively mild phenotypes (Figure 4A).
performed using GraphPad Prism statistical software version 5.02 for Windows, GraphPad Software, San Diego
The study design in mice was similar as in rats, except 5 mice of each sex were used (n=10 in total), and that
there was not a recovery group. All analyses were performed at day 29 after termination of treatment.

[2] = rat, in vivo
Description: (§1) Sprague-Dawley rats were procured from Hylasco Bio-Technology Pvt. Ltd., Hyderabad. After completion of
(§2) the acclimatization period twelve healthy rats were randomly allocated to the control and treatment g roups.
(§3) mg/kg BID) treated animals, having three rats/sex/group. Rats from control group received vehicle, consisting
(§4) quantity sufficient to 1% w/v Carboxy Methyl Cellulose Sodium Salt. Rats from treatment groups were
(§5) administered with suspensions of the indicated drugs in vehicle, orally twice a day fo r an intended period of 28
(§6) consecutive days. The dosing volume was kept constant at 10 mL/kg for each rat.
(§7) clinical sign that worsened during the treatment, were necropsied in the shortest time for ethical reasons. The
(§8) rest of the rats were necropsied at the end of the treatment.
(§9) asphyxiation on day 29, except for one group of HYL001 treated rats with 71 mg/kg BID, that were allowed to
(§10) recover from treatment for further 28 days.
(§11) The rats were subjected to detailed gross pathological examination which included careful examination of the
(§12) external surface of the body, all orifices and the cranial, thoracic and abdominal cavities and their contents. After
(§13) gross pathological examination the vital organs were trimmed of any adherent tissue and were weighed wet.
(§14) Paired organs were weighed together. Organ weights relative to terminal body weights were calculated for each
(§15) Parameters evaluated during the study included in-life observations such as clinical signs observation, body
(§16) weights, percent body weight gains, and feed consumption. Parameters like hematology, clinical chemistry,
(§17) gross pathology, and organ weights were evaluated on the day of termination. Several organs/tissues were further
(§18) processed and evaluated for histopathology, where special attention was given to bones, gastrointestinal system
(§19) (stomach, duodenum, jejunum, ileum, caecum, colon and rectum), heart, and vascular lesions in the aorta and
(§20) coronary arteries. For histopathology, 3-5 μM thick tissue sections were cut and stained with hematoxylin-eosin
(§21) stain. The heart was trimmed by longitudinally bisecting along a plane perpendicular to the plane of the
(§22) pulmonary artery to expose the right atrioventricular, left atrioventricular, and aortic valves. Both halves of the
(§23) heart were embedded as hemisection in paraffin with the cut surface down. Blocks were sectioned to obtain at
least three heart valves.

[3] = oral, cited from earlier work
[4] = Exploratory toxicology study in SD rats; details: for Degeneration of heart valves (histopathology grade): HYL001: after 4 weeks of repeated dosing, vactosertib: after 7–8 days of treatment; for Retained hypertrophied cartilage physis in sternum and femur (grade): vactosertib: all animals, HYL001: a few females
Description: as §1, §2, §3, §4, §5, §6, §7, §8, §9, §10, §11, §12, §13, §14, §15, §16, §17, §18, §19, §20, §21, §22, §23
least three heart valves.

[5] = molecular target: T1, p38α (Homo sapiens, UniProt Q16539); assay: Radiometric in vitro kinase activity assay (Kinase Profiler); assay type: biochemical; details: full-length recombinant protein; read-out: kinase inhibition IC50, p38α
T1 construct: p38alpha was used as a full -length recombinant protein; purchased Eurofins Pharma Discovery Services / Eurofins Cerep (Kinase Profiler service)
T1 sequence (Q16539 whole entry): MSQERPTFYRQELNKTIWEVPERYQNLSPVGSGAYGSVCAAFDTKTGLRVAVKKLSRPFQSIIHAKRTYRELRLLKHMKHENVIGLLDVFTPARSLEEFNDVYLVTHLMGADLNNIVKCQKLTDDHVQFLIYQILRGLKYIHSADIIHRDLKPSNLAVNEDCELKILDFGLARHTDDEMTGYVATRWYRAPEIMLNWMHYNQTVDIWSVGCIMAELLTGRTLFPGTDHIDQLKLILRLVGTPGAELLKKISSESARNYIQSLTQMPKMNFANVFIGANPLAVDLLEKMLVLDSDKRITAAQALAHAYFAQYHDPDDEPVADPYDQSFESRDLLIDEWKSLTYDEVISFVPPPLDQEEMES
Description: 5. Methods for In vitro characterizations of HYL001
Kinase affinity and selectivity […]
The activity, measured as IC50, of inhibitors was determined by radiometric γ-33P-ATP-mediated in vitro phosphorylation assays, using the Kinase Profiler service from Eurofins Pharma Discovery Services (Wolverhampton, UK) and Eurofins Cerep (Celle L’Evescault, France). Compounds, prepared in 100% DMSO, were tested using a 9-point curve with half -log serial dilutions (1–10,000 nM). […]

[6] = Solubility; assay type: physicochemical
Description: The solubilities in this solution are 0.7 mg/mL (1b) and 0.23 mg/mL (1a). In most in vivo experiments, a homogeneous suspension in the following vehicle was used: sodium carboxymethylcellulose (1%), sodium dodecyl sulfate (0.4%), polyvinylpyrrolidone (0.085%), and antifoam-A (0.05%). The solubilities in this vehicle are approximately 0.15 mg/mL (1b) and 0.09 mg/mL (1a). […] Therefore, as a proof-of-concept, we leveraged the hydroxyl handle to design HYL002. We added a carbonyl-4-piperidinopiperidine group, in analogy to the ester that solubilizes SN-38 into irinotecan, and that can be cleaved via hydrolysis inside cells[19] (Figure S1). HYL001 reacted with commercially available 4-piperidinopiperidine-1-carbonyl chloride in chloroform using triethylamine and catalytic amounts of DMAP (Scheme S1). We then transformed the resulting compound HYL002 into the corresponding HCl salt to aid the in vivo drug formulation. The free base was dissolved in dioxane under N2, where it was treated dropwise with 10 equiv of 4 M HCl in dioxane at room temperature with vigorous stirring. The reaction mixture was then taken to dryness in vacuo, giving the HCl salt of HYL002.

[7] = system: mouse tumor organoids (MTOs), CRC liver metastases; assay: Prevention of liver metastasis formation after MTO injection (monotherapy); assay type: in vivo, mice; details: 0.1× dose: 71 mg/kg BID HYL001, 80 mg/kg BID galunisertib
Description: We first assayed the capacity of HYL001 to inhibit liver metastasis formation as a monotherapy. In this model, we inoculated MTOs derived from liver metastases into the portal vein (by intrasplenic or direct intravenous injection) to model their becoming trapped in hepatic sinusoids and, depending on their metastatic capacity, the initiation of liver nodules. […] Remarkably, 0.1 × mol equiv (71 mg/kg BID) of HYL001 was sufficient to prevent metastasis formation in 10 out of 11 animals.
Figure 5 HYL001 prevents metastasis formation in vivo. (A) Experimental scheme, including injection of MTOs. Experimental end point was at day 28, 2 weeks after treatment stop. […] (B) Liver metastases (Mets) were counted at end points; each point represents one mouse. Nonparametric Mann–Whitney U test, two-tailed. ns: P > 0.05; *P < 0.05; **P < 0.01; ***P < 0.001; (C) representative images of H & E whole slides containing liver sections from mice treated with TGFβ inhibitors; dashed line circles delimit metastases. […] 0.3× and 0.1×: dilutions thereof. Bars, 10 mm.
For all tumor cell injections, C57BL/6J (or athymic BALB/C nu/nu) mice were purchased from Janvier at 6 weeks of age and injected at 7–8 weeks. Sex was matched with the origin of the tumor organoids, i.e., males for this study. […] Visible liver metastases were counted, and data were analyzed using GraphPad Prism software (v.7.03). […]

[8] = aqueous dosing vehicle (NaCMC/SDS/PVP/antifoam-A), aqueous with cosolvent or surfactant or cyclodextrin, vehicle: sodium carboxymethylcellulose (1%), sodium dodecyl sulfate (0.4%), polyvinylpyrrolidone (0.085%), antifoam-A (0.05%), read-out: Solubility

Cc1cccc(-c2[nH]c(CNc3ccccc3F)nc2-c2ccc3ncnn3c2)n1 [vactosertib, N -((4-([1,2,4]Triazolo[1,5-a]Pyridin-6-Yl)-5-(6-Methylpyridin-2-Yl)-1 H -Imidazole-2-Yl)Methyl)-2-Fluoroaniline]
Mortality or signs of morbidity ([1]; equimolar dose, mice): No mortality or signs of morbidity
Female mice with slight inflammatory infiltrates in liver ([1]; female, Balb/C, mouse, in vivo, 29 day): 4/5
Neutrophil count ([1]; mouse, in vivo): slight increase
Animals showing a curved sternum at death or end point [2]: all
Microscopic findings along the gastrointestinal tract [2]: minimal hyperplasia of the nonglandular stomach and chronic inflammation observed in one female rat
AUCinf ([3]; mice (FVB/N), 10 mg/kg ref 21): 752 ng·h/mL
AUClast ([3]; mice (FVB/N), 10 mg/kg ref 21): 724 ng·h/mL
Cl/F ([3]; mice (FVB/N), 10 mg/kg ref 21): 222 mL/min/kg
Cmax ([3]; mice (FVB/N), 10 mg/kg ref 21): 625 ng/mL
T1/2 ([3]; mice (FVB/N), 10 mg/kg ref 21): 196 min
Tmax ([3]; mice (FVB/N), 10 mg/kg ref 21): 30 min
Vss/F ([3]; mice (FVB/N), 10 mg/kg ref 21): 18 L/kg
Degeneration of heart valves (histopathology grade) [4]: moderate
Animals with chronic inflammation of the myocardium ([4]; at early end points (day 7–8)): all 6
Mortality ([4]; group 4, equimolar dose (82 mg/kg BID)): all female rats were found dead on day 7 and all male rats had to be sacrificed on day 8
Retained hypertrophied cartilage physis in sternum and femur (grade) [4]: mild–moderate

Cc1cccc(-c2nn3c(c2-c2ccnc4ccc(C(N)=O)cc24)CCC3)n1 [galunisertib]
IC50 [5]: 920 nM
solubility [6, 8]: ~150 µg/mL (≈ 406 µM)
solubility ([6]; solution of PBS/2-hydroxypropy-β-cyclodextrin (1 g/mL)): 700 µg/mL (≈ 1890 µM)
Solubility in water [6]: poorly soluble
Number of mice with detectable liver metastases (liver mets YES) [7]: All treated animals developed metastases
AUClast ([3]; mice (♀ CD-1), 75 mg/kg ref 20): 3110 ng·h/mL
Cmax ([3]; mice (♀ CD-1), 75 mg/kg ref 20): 3330 ng/mL
T1/2 ([3]; mice (♀ CD-1), 75 mg/kg ref 20): 84 min
Tmax ([3]; mice (♀ CD-1), 75 mg/kg ref 20): 30 min

Cc1cccc(-c2nn3c(c2-c2ccnc4ccc(O)cc24)CCC3)n1 [HYL001, 4-(2-(6-Methylpyridin-2-yl)-5,6-dihydro-4H-pyrrolo[1,2-b]pyrazol-3-yl)quinolin-6-ol]
IC50 [5]: 548 nM
solubility ([6]; PBS/2-hydroxypropyl-β-cyclodextrin solution, aqueous with cosolvent or surfactant or cyclodextrin, solution of PBS/2-hydroxypropy-β-cyclodextrin (1 g/mL), read-out: Solubility): 230 µg/mL (≈ 672 µM)
solubility [6, 8]: ~90 µg/mL (≈ 263 µM)
Solubility in water [6]: poorly soluble
Female mice with slight inflammatory infiltrates in liver ([1]; mouse, in vivo): 2/5
Mortality or signs of morbidity ([1]; mouse, in vivo): No mortality or signs of morbidity
Number of mice without detectable liver metastases (liver mets NO) [7]: 10 out of 11
Animals showing a curved sternum at death or end point [2]: Some female rats
Degeneration of heart valves (histopathology grade) [4]: minimal to mild
Heart abnormalities ([4]; low-dose group 1 (25 mg/kg BID)): no heart abnormalities were observed
no-observed-adverse-effect level ([4]; male rats): 25 mg/kg BID
Effects on body weight (gain), feed consumption, hematology, and clinical chemistry analytes ([4]; rats of both sexes, oral, either dose level): no HYL001-related effects
Retained hypertrophied cartilage physis in sternum and femur (grade) [4]: mild
